Columns and labels:
Assay in all cases: relative viability (nuclei count vs DMSO), 5 days (fraction); higher = more cells survive
[1] = compound: CCC1=CN=CN=C1N2CCN(CC2)CC3=NC4=C(N3)C=C(C=C4)C(F)(F)F + N=C(N)NC(=N)NCCc1ccccc1 [Phenformin] (partner 250 µM)
Summary of the method: (§1)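 Each reported value is a median over duplicate plates. It expresses relative viability: treated-well nuclei count divided by vehicle-well nuclei count. Lung cancer cell lines in 1536-well plates were dosed by pin tool a day after seeding, alone with one drug or with a fixed anchor-drug dose plus five library-drug doses (not always all listed) in √10 steps, and nuclei were counted after 5 days.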

[2] = compound: CCn1c(-c2nonc2N)nc2cnc(Oc3cccc(NC(=O)c4ccc(OCCN5CCOCC5)cc4)c3)cc21 + CS(=O)(=O)CCNCc1ccc(-c2ccc3ncnc(Nc4ccc(OCc5cccc(F)c5)c(Cl)c4)c3c2)o1 [Lapatinib] (partner 2 µM)
Summary of the method: as §1

Mirin + Phenformin = compound: N=C1NC(=O)/C(=C/c2ccc(O)cc2)S1 [Mirin] + N=C(N)NC(=N)NCCc1ccccc1 [Phenformin] (partner 250 µM)
Summary of the method: as §1

Mirin + Olaparib = compound: N=C1NC(=O)/C(=C/c2ccc(O)cc2)S1 [Mirin] + O=C(c1cc(Cc2n[nH]c(=O)c3ccccc23)ccc1F)N1CCN(C(=O)C2CC2)CC1 [Olaparib] (partner 8 µM)
Summary of the method: as §1

Row | Cell Line | relative viability ([1]; first compound 0.04 µM) | relative viability ([1]; first compound 0.1265 µM) | relative viability ([1]; first compound 0.4 µM) | relative viability ([1]; first compound 1.265 µM) | relative viability ([1]; first compound 4 µM) | relative viability ([2]; first compound 0.04 µM) | relative viability ([2]; first compound 0.1265 µM) | relative viability ([2]; first compound 0.4 µM) | relative viability ([2]; first compound 1.265 µM) | relative viability ([2]; first compound 4 µM) | relative viability (Mirin + Phenformin; first compound 0.25 µM) | relative viability (Mirin + Phenformin; first compound 0.7906 µM) | relative viability (Mirin + Phenformin; first compound 2.5 µM) | relative viability (Mirin + Phenformin; first compound 7.906 µM) | relative viability (Mirin + Phenformin; first compound 25 µM) | relative viability (Mirin + Olaparib; first compound 0.25 µM) | relative viability (Mirin + Olaparib; first compound 0.7906 µM) | relative viability (Mirin + Olaparib; first compound 2.5 µM) | relative viability (Mirin + Olaparib; first compound 7.906 µM) | relative viability (Mirin + Olaparib; first compound 25 µM)
1 | NCI-H1355 | 0.456 | 0.428 | 0.406 | 0.395 | 0.424 | 1.07 | 0.978 | 0.712 | 0.62 | 0.597 | 0.472 | 0.463 | 0.456 | 0.47 | 0.521 | 0.681 | 0.747 | 0.692 | 0.755 | 0.745
2 | NCI-H1395 | 0.41 | 0.436 | 0.444 | 0.415 | 0.458 | 1.22 | 0.92 | 0.632 | 0.418 | 0.57 | 0.41 | 0.421 | 0.435 | 0.463 | 0.412 | 0.427 | – | 0.478 | 0.426 | 0.425
3 | NCI-H1437 | 0.343 | 0.295 | 0.302 | 0.255 | 0.317 | 0.826 | 0.679 | 0.58 | 0.536 | 0.5 | 0.31 | 0.333 | 0.318 | 0.3 | 0.309 | 0.637 | 0.641 | 0.607 | 0.625 | 0.549
4 | NCI-H1650 | 0.484 | 0.519 | 0.392 | – | 0.416 | 1.04 | 0.747 | 0.74 | 0.671 | 0.694 | 0.39 | 0.456 | 0.435 | 0.423 | 0.295 | 0.789 | 0.929 | 0.817 | 0.755 | 0.732
5 | NCI-H1651 | 0.369 | 0.321 | 0.308 | 0.332 | 0.375 | 0.998 | 0.819 | 0.639 | 0.49 | 0.421 | 0.332 | 0.34 | 0.324 | 0.336 | 0.319 | 0.182 | 0.208 | 0.182 | 0.167 | 0.199
6 | NCI-H1666 | 0.569 | 0.551 | 0.52 | 0.555 | 0.594 | 0.792 | 0.777 | 0.592 | 0.498 | 0.329 | 0.568 | 0.62 | 0.598 | 0.539 | 0.49 | 0.763 | 0.797 | 0.737 | 0.71 | 0.728
7 | NCI-H1734 | 0.377 | 0.379 | 0.427 | 0.381 | 0.445 | 1.03 | 0.93 | 0.6 | 0.38 | 0.403 | 0.395 | 0.324 | 0.35 | 0.394 | 0.352 | 0.538 | 0.582 | 0.662 | 0.556 | 0.461
8 | NCI-H1755 | 0.632 | 0.583 | 0.597 | 0.484 | 0.634 | 1.11 | 0.928 | 0.713 | 0.641 | 0.6 | 0.617 | 0.595 | 0.683 | 0.63 | 0.678 | 0.851 | 0.914 | 0.866 | 0.833 | 0.93
9 | NCI-H1792 | 0.382 | 0.259 | 0.162 | – | 0.222 | 1 | 0.869 | – | 0.567 | 0.793 | 0.351 | 0.369 | 0.306 | 0.245 | 0.264 | 0.533 | 0.392 | 0.484 | 0.383 | 0.495
10 | NCI-H1793 | 0.359 | 0.354 | 0.292 | – | 0.253 | 0.555 | 0.569 | 0.582 | 0.414 | 0.418 | 0.447 | – | 0.362 | 0.287 | 0.374 | 0.649 | – | 0.958 | 0.873 | 0.703
11 | NCI-H1915 | 0.361 | 0.362 | 0.376 | 0.344 | 0.358 | 1.11 | 0.949 | 0.956 | 0.611 | 0.387 | 0.353 | – | 0.364 | 0.356 | 0.386 | 0.283 | 0.221 | 0.272 | 0.223 | 0.182
12 | NCI-H1944 | 0.239 | 0.188 | 0.187 | 0.162 | 0.227 | 0.822 | 0.699 | – | 0.691 | 0.553 | 0.206 | 0.227 | 0.186 | 0.169 | 0.167 | 0.377 | 0.421 | 0.391 | 0.328 | 0.296
13 | NCI-H1975 | 0.434 | 0.392 | 0.374 | 0.382 | 0.436 | 0.778 | 0.729 | 0.477 | 0.435 | 0.331 | 0.448 | 0.375 | 0.452 | 0.452 | 0.425 | 0.892 | 0.83 | 0.819 | 0.855 | 0.715
14 | NCI-H1993 | 0.551 | 0.461 | 0.496 | 0.537 | 0.579 | 0.797 | 0.798 | – | 0.754 | 0.734 | 0.459 | – | 0.517 | 0.586 | 0.623 | 1.07 | 1.07 | 1.12 | 0.932 | 0.962
15 | NCI-H2009 | 0.483 | 0.498 | 0.45 | 0.419 | 0.374 | 1.02 | 0.957 | 0.575 | 0.312 | 0.314 | 0.485 | 0.573 | 0.522 | 0.411 | 0.526 | 0.727 | 0.737 | 0.684 | 0.524 | 0.675
16 | NCI-H2023 | 0.449 | 0.433 | 0.442 | 0.378 | 0.393 | 1.25 | 0.797 | 0.515 | 0.555 | 0.373 | 0.419 | 0.461 | 0.442 | 0.426 | 0.418 | 0.496 | 0.506 | 0.454 | 0.459 | 0.416
17 | NCI-H2085 | 0.724 | 0.78 | 0.663 | 0.522 | 0.735 | 0.865 | 0.75 | 0.684 | 0.602 | 0.714 | 0.804 | 0.756 | 0.749 | 0.655 | 0.654 | 0.773 | 0.752 | 0.773 | 0.949 | 0.808
18 | NCI-H2087 | 0.499 | 0.465 | 0.448 | 0.467 | 0.496 | – | 0.693 | 0.871 | 0.499 | 0.677 | 0.494 | 0.559 | 0.454 | 0.429 | 0.613 | 0.602 | 0.559 | 0.611 | 0.671 | 0.498
19 | NCI-H2126 | 0.524 | 0.533 | 0.521 | 0.515 | 0.581 | 0.764 | 0.782 | 0.541 | 0.742 | 0.825 | 0.549 | 0.471 | 0.509 | 0.546 | 0.532 | 0.929 | 0.925 | 0.951 | 0.947 | 0.959
20 | NCI-H2170 | 0.401 | 0.359 | 0.351 | 0.382 | 0.361 | 0.261 | 0.278 | 0.274 | 0.258 | 0.27 | 0.449 | 0.439 | 0.426 | 0.377 | 0.413 | 0.582 | 0.548 | 0.576 | 0.597 | 0.601
21 | NCI-H2228 | 0.313 | 0.341 | 0.286 | 0.312 | 0.399 | 1.79 | 0.81 | 0.954 | 0.756 | 0.727 | 0.377 | 0.299 | 0.303 | 0.295 | 0.309 | 0.552 | 0.676 | 0.819 | 0.666 | 0.723
22 | NCI-H2347 | 0.314 | 0.397 | 0.498 | 0.243 | 0.304 | 0.833 | 0.911 | 0.704 | 0.446 | 0.536 | 0.334 | 0.328 | 0.52 | 0.453 | 0.552 | 0.639 | 0.639 | 0.602 | 0.612 | 0.588
23 | NCI-H2405 | 0.418 | 0.401 | 0.419 | – | 0.492 | 1.19 | 0.661 | 0.194 | 0.336 | 0.316 | 0.395 | 0.392 | 0.392 | 0.346 | 0.37 | 0.916 | – | 0.898 | 0.97 | 0.838
24 | NCI-H3122 | 0.372 | 0.362 | 0.318 | 0.359 | 0.342 | 1.1 | 1.04 | 0.891 | 0.804 | 0.691 | 0.378 | 0.426 | 0.414 | 0.378 | 0.467 | 0.691 | 0.667 | 0.566 | 0.623 | 0.664
25 | PC-3 [JPC-3] | 0.456 | 0.456 | 0.457 | 0.505 | 0.479 | 0.527 | 0.499 | 0.438 | 0.573 | 0.522 | 0.462 | 0.48 | 0.513 | 0.513 | 0.522 | 1.14 | 1.23 | 1.19 | 1.21 | 1.23
26 | PC-14 | 0.463 | 0.472 | 0.561 | 0.669 | 0.567 | 0.343 | 0.227 | 0.232 | 0.264 | 0.283 | 0.595 | 0.509 | 0.659 | 0.553 | 0.814 | 0.25 | 0.34 | 0.313 | 0.308 | 0.271
27 | RERF-LC-KJ | 0.407 | 0.382 | 0.467 | 0.366 | 0.41 | 0.933 | 0.827 | 0.717 | 0.684 | 0.606 | 0.37 | 0.543 | 0.418 | 0.487 | 0.461 | 1.03 | 1.12 | 0.941 | 0.972 | 0.875
28 | SK-LU-1 | 0.523 | 0.534 | 0.509 | 0.385 | 0.579 | 1.24 | 0.662 | 0.611 | 0.493 | 0.449 | 0.643 | 0.486 | 0.522 | 0.497 | 0.44 | 0.5 | 0.532 | 0.449 | 0.357 | 0.425
29 | SK-MES-1 | 0.613 | 0.608 | 0.583 | 0.622 | 0.528 | 0.493 | 0.434 | 0.404 | 0.453 | 0.401 | 0.678 | 0.852 | 0.693 | 0.746 | 0.771 | 0.721 | 0.877 | 0.682 | 0.583 | 0.455
30 | SW 1573 | 0.405 | 0.415 | 0.3 | 0.406 | 0.357 | 1.21 | 0.904 | 0.685 | 0.627 | 0.353 | 0.384 | 0.413 | 0.378 | 0.385 | 0.262 | 0.481 | 0.408 | 0.46 | 0.37 | 0.271

— the supplement of paper PMC10307832
